Source: paper PMC11544713, “The Application of Untargeted Metabolomic Approaches for the Search of Common Bioavailable Metabolites in Human Plasma Samples from Lippia citriodora and Olea europaea Extracts” (Journal of Agricultural and Food Chemistry, 2024)

Assay: Acute intervention: nutrikinetics of plasma metabolites after ingestion of L. citriodora extract (untargeted HPLC-ESI-QTOF-MS)
Experimental: A total of 25 healthy individuals participated, with an average age of 27 ± 9 years and a mean body mass index (BMI) of 23 ± 3 kg/m^2. None of the participants were taking any medications or nutritional supplements nor did they have any chronic diseases or gastrointestinal issues. The sample size was established based on findings from previous bioavailability research.[14] All participants provided informed consent before participating in the study.
The intervention study was carried out at Miguel Hernández University. Following an overnight fast, the volunteers were categorized into the subsequent groups: a subgroup to evaluate the LC leaf extract (n = 8), another for the OE leaf extract (n = 8), and the placebo subgroup (n = 9). This was a double-blind study, in which sample collection and treatment were carried out uniformly across all three subgroups.
Water was provided ad libitum. Prior to the ingestion of the capsule, a nurse inserted a cannula into the ulnar vein of each volunteer’s nondominant arm, and blood samples were drawn into EDTA-coated tubes at baseline (t = 0). Blood samples were then collected at 0.5, 1, 2, 4, 6, 8, and 10 h after the consumption of the 500 mg capsule. Plasma was separated through centrifugation (10 min at 3000 rpm and 4 °C) and stored at −80 °C until further analysis.
Plasma samples were initially treated using a mixture of methanol and ethanol (50:50; v:v) to remove proteins, following previously reported protocols.[19] During the sample treatment, pooled quality controls (pooled-QC) were prepared by combining equal aliquots from each sample. These QC samples were processed by using the same protocols as the experimental biological samples.
A reversed-phase analytical C18 column (Agilent Zorbax Eclipse Plus, 1.8 μm, 4.6 × 150 mm^2) with a protective cartridge with the same packing was used. MS data were acquired in negative ionization mode, operating in full scan across a mass-to-charge ratio (m/z) range of 50–1700. The analytical method used was adapted from that described by Villegas-Aguilar et al.[19]
Metabolite nutrikinetics were studied using PKSolver, an add-in program for pharmacokinetic data analysis in Microsoft Excel. The time to reach the maximum concentration (observed Tmax) was calculated for each significant metabolite. As an untargeted metabolomic approach was used to detect the circulating metabolites, these were not quantified. Therefore, the maximum concentration (Cmax) and area under the curve (AUC) parameters were calculated in a relative way by using the deconvoluted chromatographic areas. […] Statistical differences were determined by unpaired t tests. All p values less than 0.05 were considered statistically significant.

[1] = 0.5 h after L. citriodora extract
[2] = 1 h after L. citriodora extract
[3] = 2 h after L. citriodora extract
[4] = 4 h after L. citriodora extract
[5] = 6 h after L. citriodora extract
[6] = 8 h after L. citriodora extract
[7] = 10 h after L. citriodora extract
[8] = human plasma, 500 mg capsule of L. citriodora (LC) extract, oral, mean ± SD

Row | SMILES | mean chromatographic area in plasma, T0.5 [1] | mean chromatographic area in plasma, T1 [2] | mean chromatographic area in plasma, T2 [3] | mean chromatographic area in plasma, T4 [4] | mean chromatographic area in plasma, T6 [5] | mean chromatographic area in plasma, T8 [6] | mean chromatographic area in plasma, T10 [7] | AUC: area under the zero-moment curve [8] | Cmax: relative maximum plasma level [8] | observed Tmax: time required to reach Cmax [8] [h] | AUC: area under the zero-moment curve (human, in vivo, po, 500 mg) | Cmax: relative maximum plasma level (human, in vivo, po, 500 mg) | observed Tmax: time required to reach Cmax (human, in vivo, po, 500 mg) [h] | mean chromatographic area in plasma, T0.5 (in vivo) | mean chromatographic area in plasma, T1 (in vivo) | mean chromatographic area in plasma, T2 (in vivo) | mean chromatographic area in plasma, T4 (in vivo) | mean chromatographic area in plasma, T6 (in vivo) | mean chromatographic area in plasma, T8 (in vivo) | mean chromatographic area in plasma, T10 (in vivo)
1 | CC1=CC(=O)CC(C)(C)C1(O)/C=C/C(C)=C/COC1OC(CO)C(O)C(O)C1O (single isomer, unassigned; isomer 1) [abscisic alcohol 11-glucoside isomer 1, abscisic alcohol 11-glucoside] | 50 | 188 | 61 | 0 | 0 | 0 | 0 | 259 ± 134 relative chromatographic area/h | 202 ± 82 relative chromatographic area | 1.2 ± 0.4 |  |  |  |  |  |  |  |  |  | 
2 | O=C(O)C=Cc1ccc(OS(=O)(=O)O)c(O)c1 (single isomer, unassigned; isomer 1) [caffeic acid 4-sulfate isomer 1, caffeic acid 4-sulfate] |  |  |  |  |  |  |  |  |  |  | 1157 ± 757 relative chromatographic area/h | 325 ± 147 relative chromatographic area | 3 ± 1 | 21 | 89 | 280 | 177 | 86 | 67 | 0
3 | COc1cc(CCCO)ccc1OC1OC(CO)C(O)C(O)C1O (single isomer, unassigned; isomer 1) [dihydroconiferin isomer 1, dihydroconiferin] | 44 | 137 | 0 | 0 | 0 | 0 | 0 | 126 ± 28 relative chromatographic area/h | 139 ± 19 relative chromatographic area | 0.9 ± 0.2 |  |  |  |  |  |  |  |  |  | 
4 | CC1=CC(=O)CC(C)(C)C1(O)/C=C/C(C)=C/COC1OC(CO)C(O)C(O)C1O (single isomer, unassigned; isomer 2) [abscisic alcohol 11-glucoside isomer 2, abscisic alcohol 11-glucoside] | 111 | 519 | 176 | 23 | 0 | 0 | 0 | 757 ± 174 relative chromatographic area/h | 562 ± 251 relative chromatographic area | 2 ± 1 |  |  |  |  |  |  |  |  |  | 
5 | O=C(O)C=Cc1ccc(OS(=O)(=O)O)c(O)c1 (single isomer, unassigned; isomer 2) [caffeic acid 4-sulfate isomer 2, caffeic acid 4-sulfate] |  |  |  |  |  |  |  |  |  |  | 1656 ± 1922 relative chromatographic area/h | 357 ± 268 relative chromatographic area | 3 ± 2 | 0 | 67 | 277 | 266 | 189 | 129 | 22
6 | COc1cc(CCCO)ccc1OC1OC(CO)C(O)C(O)C1O (single isomer, unassigned; isomer 2) [dihydroconiferin isomer 2, dihydroconiferin] | 34 | 136 | 83 | 0 | 0 | 0 | 0 | 244 ± 102 relative chromatographic area/h | 136 ± 28 relative chromatographic area | 1 ± 0 |  |  |  |  |  |  |  |  |  | 
7 | CC1=CC(=O)CC(C)(C)C1(O)/C=C/C(C)=C/COC1OC(CO)C(O)C(O)C1O (single isomer, unassigned; isomer 3) [abscisic alcohol 11-glucoside isomer 3, abscisic alcohol 11-glucoside] | 56 | 258 | 13 | 13 | 0 | 0 | 0 | 267 ± 94 relative chromatographic area/h | 258 ± 95 relative chromatographic area | 1 ± 0 |  |  |  |  |  |  |  |  |  | 
8 | CC(O)/C=C\C/C=C\C/C=C\CCCCCCCC(=O)O (centres unmarked) [17-hydroxylinolenic acid] | 81 | 428 | 445 | 184 | 31 | 12 | 20 | 1621 ± 1914 relative chromatographic area/h | 335 ± 306 relative chromatographic area | 6 ± 4 |  |  |  |  |  |  |  |  |  | 
9 | COc1cc(/C=C/C(=O)O)ccc1O[C@@H]1O[C@H](C(=O)O)[C@@H](O)[C@H](O)[C@H]1O [ferulic acid 4-O-glucuronide] | 0 | 0 | 66 | 163 | 217 | 177 | 89 | 1304 ± 1975 relative chromatographic area/h | 282 ± 358 relative chromatographic area | 5 ± 2 |  |  |  |  |  |  |  |  |  | 
10 | CC(C)=C1CC2(C)C(=CC1=O)CCC(OC1OC(CO)C(O)C(O)C1O)C2C (centres unmarked) [isopetasoside] | 95 | 394 | 200 | 25 | 14 | 0 | 0 | 722 ± 166 relative chromatographic area/h | 455 ± 162 relative chromatographic area | 2 ± 1 |  |  |  |  |  |  |  |  |  | 
11 | C=C(C)[C@@H]1[C@H]2OC(=O)[C@@H]1[C@]1(O)C[C@H]3O[C@]34C(=O)O[C@H]2[C@]14C [picrotoxinin] | 32 | 102 | 91 | 0 | 0 | 0 | 0 | 231 ± 102 relative chromatographic area/h | 136 ± 44 relative chromatographic area | 1.3 ± 0.5 |  |  |  |  |  |  |  |  |  | 
